System: 496974-208-R-J2-PDC complex spheroids, growth % test/control
Experiment: Anticancer human tumor 496974-208-R-J2-PDC patient-derived pancreatic carcinoma cell line growth inhibition [CLK]
Settings: for IC50: curve of first compound; for viability, T/C: stronger effect = lower value
From the text: A high-throughput screen of multi-cell type tumor spheroids was designed to identify active combinations of […] and targeted small molecules. Complex spheroids include a stromal component modeled by human endothelial cells (HUVEC) and fibroblasts modeled by human mesenchymal stem cells (MSCs). The concentration ranges selected for each drug and investigational agent were based upon clinically achievable concentrations if the clinical Cmax of the agent was known.
Compounds. The drugs and investigational agents: cirtuvivint (SM08502; NSC835563), CC-671 (NSC850746), vemurafenib (NSC761431), tapotoclax (NSC804041), sotorasib (NSC818433), adagrasib (NSC831453), MRTX-1133 (NSC836407), BAY2416964 (NSC825713), copanlisib (NSC816437), inavolisib (NSC800729), abemaciclib (NSC768073), osimertinib (NSC779217), entinostat (NSC756642), eltanexor (KPT-8602, NSC794443), venetoclax (NSC766270), ceralasertib (NSC777638), bortezomib (NSC756655), olaparib (NSC753686), talazoparib (NSC767125), alisertib (NSC759677), peposertib (NSC802822), gemcitabine (NSC613327), 5-fluorouracil (NSC19893), SN-38 (NSC673596), oxaliplatin (NSC266046), paclitaxel (NSC125973), and doxorubicin (NSC123127), were obtained from the National Cancer Institute (NCI) Developmental Therapeutics Program Chemical Repository. The FDA-approved anticancer drug set is available from the Developmental Therapeutics Program at https://dtp.cancer.gov/organization/dscb/obtaining/available plates.htm. […] The stock solutions were prepared in dimethyl sulfoxide (DMSO, Sigma-Aldrich, St. Louis, MO, cat. D2650), except for the platinum complexes which were prepared in saline (Quality Biological, Gaithersburg, MD, cat. 114-055-101), at 800-fold the tested concentration and stored at -70 degrees C prior to their use. All drugs and investigational agents were tested over a range starting from a high concentration at or near the clinical Cmax and decreasing in half-log increments. If the clinical Cmax for an agent had not been determined, the highest concentration tested was 10 microM.
Cell Culture. All cells were maintained in an incubator at 37 degrees C and 5% CO2 with 95% humidity. The PDC lines were cultured according to standard operating procedures established by the NCI PDMR. Briefly, all PDCs were thawed and cultured in Matrigel-coated flasks prepared with a working solution of 1X Ham's F-12 nutrient mix, without supplementation (Invitrogen, Waltham, MA, cat. 11765054), 100 U/mL penicillin-streptomycin (Invitrogen, cat. 15140122), and 2.5% Matrigel (Corning Inc., Corning, NY, cat. 354248) for the first three passages. The 947758-054-R-J2-PDC line was cultured in 6B/Colon 1A media, which includes advanced DMEM/F-12 (Thermo Fisher Scientific, cat. 12634028), 10 mM HEPES (Thermo Fisher Scientific, cat. 15630080), 1X GlutaMAX supplement (Thermo Fisher Scientific, cat. 35050061), 0.1 mg/mL primocin (InvivoGen, cat. ant-pm-2), 10% defined fetal bovine serum, heat inactivated (HyClone Laboratories Inc., cat. SH30070.03HI), 1.25 mM N-Acetyl-L-cysteine (Sigma-Aldrich, cat. A9165), 10 mM nicotinamide (Sigma-Aldrich, cat. N0636), 1X B-27 supplement (Thermo Fisher Scientific, cat. 17504044), 1X N-2 supplement (Thermo Fisher Scientific, cat. 17502048), and 10 microM Y-27632 dihydrochloride (Tocris Bioscience, cat. 1254). The 876862-298-R-J1-PDC was cultured in 6E media, which includes all 6B/Colon 1A media components plus 50% L-WRN conditioned media (ATCC, cat. CRL-3276), 50 ng/mL recombinant human EGF recombinant protein (hEGF; Thermo Fisher Scientific, cat. PHG0311), 10 ng/mL recombinant human fibroblast growth factor 10 (hGFG-10; PeproTech, cat. 100-26), 1 ng/mL recombinant human fibroblast growth factor 2 (hFGF-2; PeproTech, cat. 100-18B), and 1 µM prostaglandin E2 (PGE2; Tocris, cat. 2296). The 227483-062-R1-J1-PDC line was cultured in Panc media, containing all 6E components except hFGF-2, with the addition of 500 nM SB-431542 (Selleckchem, cat. S1067) and 10 nM gastrin (Tocris, cat. 3006). […]
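Further: spheroids exposed to the drugs for 7 days before readout.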
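Wherever viability, T/C is given: 100% = DMSO vehicle control wells.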

C#Cc1c(F)ccc2cc(O)cc(-c3ncc4c(N5CC6CCC(C5)N6)nc(OCC56CCCN5CC(F)C6)nc4c3F)c12 (configuration not stated) + CN1CCN(c2cc(C(=O)Nc3cc4cc(-c5cnn(C)c5)ccc4cn3)ccn2)CC1
IC50 (second compound 0.0316 µM): 49.4 nM
IC50 (second compound 0.1 µM): < 31.6 nM
IC50 (second compound 0.316 µM): < 31.6 nM
IC50 (second compound 1 µM): < 31.6 nM
IC50 (second compound 3.16 µM): < 31.6 nM
IC50 (second compound 10 µM): < 31.6 nM
viability, T/C (second compound 0.0316 µM, first compound 0.0316 µM): 54.9%
viability, T/C (second compound 0.0316 µM, first compound 0.1 µM): 41.2%
viability, T/C (second compound 0.0316 µM, first compound 0.316 µM): 39.9%
viability, T/C (second compound 0.0316 µM, first compound 1 µM): 37.2%
viability, T/C (second compound 0.0316 µM, first compound 3.16 µM): 33.5%
viability, T/C (second compound 0.0316 µM, first compound 10 µM): 35.1%
viability, T/C (second compound 0.1 µM, first compound 0.0316 µM): 37.7%
viability, T/C (second compound 0.1 µM, first compound 0.1 µM): 34.7%
viability, T/C (second compound 0.1 µM, first compound 0.316 µM): 30.2%
viability, T/C (second compound 0.1 µM, first compound 1 µM): 25.8%
viability, T/C (second compound 0.1 µM, first compound 3.16 µM): 25.2%
viability, T/C (second compound 0.1 µM, first compound 10 µM): 22.8%
viability, T/C (second compound 0.316 µM, first compound 0.0316 µM): 6.34%
viability, T/C (second compound 0.316 µM, first compound 0.1 µM): 7.18%
viability, T/C (second compound 0.316 µM, first compound 0.316 µM): 5.55%
viability, T/C (second compound 0.316 µM, first compound 1 µM): 5.05%
viability, T/C (second compound 0.316 µM, first compound 3.16 µM): 4.85%
viability, T/C (second compound 0.316 µM, first compound 10 µM): 4.28%
viability, T/C (second compound 1 µM, first compound 0.0316 µM): 0.24%
viability, T/C (second compound 1 µM, first compound 0.1 µM): 1.36%
viability, T/C (second compound 1 µM, first compound 0.316 µM): 0.31%
viability, T/C (second compound 1 µM, first compound 1 µM): 0.34%
viability, T/C (second compound 1 µM, first compound 3.16 µM): 0.22%
viability, T/C (second compound 1 µM, first compound 10 µM): 0.33%
viability, T/C (second compound 3.16 µM, first compound 0.0316 µM): 0.26%
viability, T/C (second compound 3.16 µM, first compound 0.1 µM): 1.39%
viability, T/C (second compound 3.16 µM, first compound 0.316 µM): 0.4%
viability, T/C (second compound 3.16 µM, first compound 1 µM): 0.27%
viability, T/C (second compound 3.16 µM, first compound 3.16 µM): 0.23%
viability, T/C (second compound 3.16 µM, first compound 10 µM): 1.06%
viability, T/C (second compound 10 µM, first compound 0.0316 µM): 0.28%
viability, T/C (second compound 10 µM, first compound 0.1 µM): 0.2%
viability, T/C (second compound 10 µM, first compound 0.316 µM): 0.22%
viability, T/C (second compound 10 µM, first compound 1 µM): 0.2%
viability, T/C (second compound 10 µM, first compound 3.16 µM): 0.21%
viability, T/C (second compound 10 µM, first compound 10 µM): 1.87%
